# Test results published in patent publication US20250262188A1, “Methods of Increasing the Plasma Drug Exposure of Anticancer Agents” (Scandion Oncology A/S, priority 2021, published 2025).
# Entries after “also recorded” stand apart in the source; their conditions may differ. Read-outs that look alike come from different tables or passages of the source.
# What was measured:
# [1] = molecular target: T1, BCRP (Homo sapiens, UniProt Q9UNQ0); experiment: 3H-SN-38 uptake in HT29 SN-38 resistant cell monolayers (Example 6); format: cell-based; details: 25 μM test compound, HT29 SN-38 resistant, ANOVA α=0.05
# T1 construct: endogenous in cells; host or cells: HT29 parental and HT29 SN38-resistant colorectal cancer cells
# T1 sequence (Q9UNQ0 1-655): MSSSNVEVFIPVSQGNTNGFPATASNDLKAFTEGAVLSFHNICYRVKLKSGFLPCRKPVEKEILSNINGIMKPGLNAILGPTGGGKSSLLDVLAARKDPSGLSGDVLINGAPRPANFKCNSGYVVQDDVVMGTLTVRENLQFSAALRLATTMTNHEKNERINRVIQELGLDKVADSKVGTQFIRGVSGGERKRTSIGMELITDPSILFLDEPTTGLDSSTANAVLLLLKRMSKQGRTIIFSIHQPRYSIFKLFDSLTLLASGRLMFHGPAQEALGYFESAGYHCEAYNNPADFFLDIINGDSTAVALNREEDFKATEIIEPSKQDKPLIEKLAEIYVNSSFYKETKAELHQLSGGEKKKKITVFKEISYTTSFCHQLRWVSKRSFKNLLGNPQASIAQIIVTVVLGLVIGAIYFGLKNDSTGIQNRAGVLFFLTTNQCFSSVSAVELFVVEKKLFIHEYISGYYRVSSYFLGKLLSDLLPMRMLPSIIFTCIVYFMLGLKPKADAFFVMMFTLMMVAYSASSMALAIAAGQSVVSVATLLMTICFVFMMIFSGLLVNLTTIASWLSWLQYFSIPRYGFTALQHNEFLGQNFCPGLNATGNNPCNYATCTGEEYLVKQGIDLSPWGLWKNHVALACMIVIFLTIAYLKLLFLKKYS
# Description: (§1) All treatments were investigated in three technical replicates (N=3). On the day of experimentation, the culture media was exchanged with 100 μL transport buffer (HBSS, 0.05% BSA, 10 mM HEPES, pH 7.4) and cells were incubated for 15 minutes at 37° C.
# (§2) Subsequently, the blank transport buffer was exchanged with 50 μL transport buffer containing the different compounds (in 2x of the final concentration) to be tested and incubated for 15 minutes at 37° C. The uptake experiment was started by adding 50 μL of ^3H-SN38 at a concentration of 2 μCi/mL to all wells (the resulting concentration of ^3H-SN38 during the experiment was 1 μCi/mL). The uptake experiment was stopped after 15 minutes of incubation at 37° C. by removing the transport buffer from all wells.
# (§3) The cell monolayers were subsequently washed twice by adding/removing ice-cold transport buffer twice and finally the cell monolayers were lysed by incubation in 100 μl of 0.1% TritonX-100 for 15 minutes at ambient temperature. Cell lysates were transferred to scintillation vials containing 2 mL of scintillation fluid (Ultima Gold, PerkinElmer). Each well was washed with 2×100 μL purified water (milliQ), which was also transferred to respective scintillation vials.
# [2] = molecular target: T1, BCRP; experiment: 3H-SN-38 uptake in HT29 parental cell monolayers (Example 6); format: cell-based; details: 25 μM test compound; HT29 parental; ANOVA α=0.05
# Description: as §1, §2, §3
# [3] = SN-38 and irinotecan PK in patients with 100 or 150 mg SCO-101 and FOLFIRI versus literature (Example 7); details: for AUC Mean (SD) / Cmax Mean (SD): Irinotecan (FOLFIRI) Norm 125 mg/m2, add-on 150 mg SCO-101 (n = 10)
# [4] = Irinotecan (Camptosar) Norm 125 mg/m2, NO SCO-101 (n = 99), literature value; cited from earlier work
# [5] = SN-38 PK profile and tolerability in metastatic colorectal cancer patients treated with SCO-101 and FOLFIRI (Example 2); format: in vivo, human
# Description: Patients with metastatic colorectal cancer were included in a study and treated with a combination of SCO-101 and FOLFIRI (combination of irinotecan, 5-FU and leucovorin) in 14 day treatment cycles. Patients received varying doses of Irinotecan between 50% and 80% of the recommended dose of Irinotecan (180 mg/m^2) according to their individual tolerability, which is standard practise. On days 1, 2, 3, 4, 5 and 6 in each treatment cycle, patients received one fixed daily dose of 150 mg SCO-101 taken in the morning at least 30 minutes before ingestion of food. On day 5 to 7, patients received FOLFIRI as specified for Colorectal cancer combination regimen 2.
# Blood plasma samples were analysed for concentrations of SCO-101, irinotecan and SN-38 using Liquid Chromatography with Tandem Mass Spectrometric Detection (LC-MS/MS) bioanalytical method calibrated and validated in the rant 300 to 90.000 ng/ml. The method and system, including validation were according to industry standard. Data were analysed using commercially available software such as Win-Non-Lin (available from Certara inc.)
# A trial was setup to address the safety, tolerability, and efficacy of SCO-101 given orally for 6 days followed by FOLFIRI at varying doses from day 5 to 7, in a biweekly schedule, in patients with metastatic colorectal cancer who have formerly been treated with FOLFIRI and afterwards progressed. The first part of the study was a dose-finding study, where the impact of SCO-101 on the pharmacokinetics (PK) of SN-38 was studied.
# 12 patients from the dose-finding part of the study received 150 mg SCO-101 for 6 days and […] of the recommended dose of FOLFIRI. 6 of the patients had RAS wildtype tumors and these patients were subjected to further analysis.
# Blood for pharmacokinetic analysis was sampled from the patients were taken at 1, 2, 4, 8, 24, 48, and 96 hours after treatment with FOLFIRI and SCO-101.
# [6] = FIG. 1A, cited from earlier work
# [7] = SN-38, 90 mg/m2 irinotecan + SCO-101 vs 180 mg/m2 standard
Structure (SMILES),Uptake of SN-38 relative to blank HBSS transport buffer control [2],AUC Mean (SD) [3] [ng·h/mL],Cmax Mean (SD) [3] [ng/mL],AUC Mean (SD) [4] [ng·h/mL],Cmax Mean (SD) [4] [ng/mL],Uptake of SN-38 relative to blank HBSS transport buffer control [1],also measured
Nc1ncnc2n[nH]c(Nc3ccc(F)cc3)c12 [CGP57380],significant increase,–,–,–,–,–,Uptake of SN-38 relative to blank HBSS transport buffer control ([1]; listed as CGP5738): not different
CCc1c2c(nc3ccc(OC(=O)N4CCC(N5CCCCC5)CC4)cc13)-c1cc3c(c(=O)n1C2)COC(=O)[C@]3(O)CC [Irinotecan],–,12565,1457,10529,1492,–,–
CCc1c2c(nc3ccc(O)cc13)-c1cc3c(c(=O)n1C2)COC(=O)[C@]3(O)CC [SN-38],–,2088,86,267,27.8,–,"Fold increase (study vs Standard) of AUC_0-24 [5, 7]: 3.7; Fold increase (study vs Standard) of Cmax [5, 7]: 1.5; Fold increase (study vs Standard) of T½ [5, 7]: 1.6; half-life ([5]; human, plasma, intravenous, SN-38 study: 150 mg SCO-101 + FOLFIRI, normalized to irinotecan 90 mg/m2, day 5, read-out: T½ hours (SD) (converted)): 19 h; AUC(0-t) ([5]; human, plasma, intravenous, SN-38 study: 150 mg SCO-101 + FOLFIRI, normalized to irinotecan 90 mg/m2, read-out: AUC_0-24 h*ng/ml (SD)): 1420 ng·h/mL; Fold increase in AUC of SN-38 vs 125 mg/m2 irinotecan administered alone ([3]; 100 mg SCO-101): approximately 5 fold; Fold increase in AUC of SN-38 vs 125 mg/m2 irinotecan administered alone ([3]; 150 mg SCO-101): ~8 fold; SN-38 plasma Cmax ([6]; conventional irinotecan regime 180 mg/m^2, no SCO-101, public reference data): about 25 ng/ml; Time after which SN-38 plasma concentration becomes therapeutically ineffective ([6]; conventional irinotecan regime 180 mg/m^2): about 24 hours"
O=C(Nc1cc(C(F)(F)F)ccc1N1CCCCC1)c1ccncc1 [Srpin340],significant increase,–,–,–,–,significantly increased; also recorded: significant increase,–
Cc1cc(Nc2cc(N)ncn2)c(=O)n2c1C(=O)NC21CCCCC1 [Tomivorsetib],significant increase,–,–,–,–,significantly increased; also recorded: significant increase,–
